Test results: patent US20040101488A1, “Method for the prevention of septic shock lethality using curcumin” (priority 2000, published 2004)
Entries after “also recorded” stand apart in the source; their conditions may differ.

What was measured:
[1] = tested on: mice injected with lipopolysaccharide (septic shock); experiment: LPS-induced septic shock in mice: survival and symptoms; assay type: in vivo; details: none prior
[2] = tested on: mice injected with lipopolysaccharide (septic shock); experiment: as above; assay type: in vivo; details: for Percentage Survival: prior to and after LPS (40 mg/kg i.p.), mice
Procedure: In septic shock experiments, age-and body weight-matched (25-30 g) female swiss albino mice were injected intraperitoneally with 40 mg/kg LPS solubilised in 200 μl sterile 0.9% saline. Control animals received equal volumes of saline. For groups that were treated with curcumin, the mice were fed orally with 20 mg/kg to 60 mg/kg body weight curcumin suspended in olive oil (20 mg/ml) at various times prior to and after injecting LPS. The mice were fed with curcumin 4 hrs and 2 hrs prior to, simultaneously and 4 hrs, 16 hrs, 24 hrs, 48 hrs and 72 hrs after injecting LPS. Following this, the mice were observed every 2-3 hours after LPS injection with respect to septic shock symptoms such as fever, lethargy, diarrhea, watery eyes and survival.
Intraperitoneal injection of high doses of LPS (40 mg/kg) induced lethal endotoxin shock in mice. […] The death occurred within 24-48 hrs after receiving LPS. To test whether curcumin protects mice injected with LPS from septic shock, we treated mice with varying doses of curcumin 4 hrs and 2 hrs prior to, simultaneously and 4 hrs, 16 hrs, 24 hrs, 48hrs and 72 hrs after injecting LPS. […] Overall, severity of the septic shock symptoms in treated group was much less in comparison with control groups (as shown in Table 2). The mice start recovering within 48 to 72 hrs. Most importantly, 70% of the mice treated with 40 mg/kg to 60 mg/kg curcumin survived from death (FIG. 1).

[3] = tested on: neutrophils in the liver of LPS injected mice; experiment: Liver histology, chloroacetate esterase staining of neutrophils after LPS challenge; details: 24 hrs after LPS challenge, liver sections, FIG. 2
[4] = tested on: adhesion of human peripheral neutrophils to endothelial cells from human umbilical cord; experiment: Cell adherence assay: neutrophil adhesion to endothelial monolayers; assay type: cell-based
Procedure: Endothelial cells grown to confluency in 96 well plates were incubated without or with indicated concentrations of curcumin for 1 hr followed by induction without (hatched bars) or with (closed bars) LPS (1 μg/ml) for 6 hrs. The cells were then incubated with human peripheral neutrophils for 1 hr. The amount of neutrophils adhering to the endothelial cell monolayers was measured by a colorimetric assay as described in Example 6.
Primary endothelial cells were isolated from human umbilical cord. For isolation of the cells the umbilical cord vein was canulated and then perfused with phosphate buffer saline to remove blood and then incubated with 0.125% trypsin for 15 mins at 37° C. The vein was then perfused with PBS and the cells were collected. […] The viability of endothelial cells in culture was checked by trypan blue exclusion test and the purity was determined by E-selectin staining. […]
Adhesion of neutrophils to endothelial monolayers was assayed as described previously (Dobrina A et al., J. Clin. Invest., 88:20-26 1991). […] The absorbance was determined at […] using an automated microplate reader (Anthos Labtech HT2, Austria).

SMILES: COc1cc(/C=C/C(=O)CC(=O)/C=C/c2ccc(O)c(OC)c2)ccc1O [curcumin, diferuloylmethane]
- survival of recovered mice on repeated LPS injection ([1]; curcumin only simultaneously with and after LPS (3, 6, 9, 24, 42 hrs)): all the animals survived; also recorded: all survived death
- severity of septic shock symptoms in recovered mice on repeated LPS injection ([1]; curcumin only simultaneously with and after LPS): significant reduction in severity of septic shock symptoms
- mice survived from death ([2]; 40 mg/kg to 60 mg/kg curcumin orally, LPS 40 mg/kg i.p., FIG. 1): 70%
- Percentage Survival ([2]; curcumin 20 mg/kg body weight orally): 0%
- Percentage Survival ([2]; curcumin 40 mg/kg body weight orally): 70%
- Percentage Survival ([2]; curcumin 60 mg/kg body weight orally): 70%
- severity of the septic shock symptoms versus control groups ([2]; curcumin treated mice, LPS 40 mg/kg i.p., lethargy, watery eyes, diarrhea): much less
- protection of mice by low dose of curcumin ([2]; low dose, LPS 40 mg/kg i.p.): not able to protect the mice
- extravasation of neutrophils in the liver versus untreated mice [3]: much reduced
- adhesion of neutrophils to unstimulated endothelial monolayers ([4]; 10 μM to 40 μM curcumin for 1 hr, no LPS): did not affect
- inhibition of neutrophil adhesion to LPS stimulated endothelial cells ([4]; curcumin 40 μM for 1 hr, then LPS 1 μg/ml for 6 hrs, concentration dependent over 10 to 40 μM): almost complete inhibition
